Assay results taken from patent US20240293416A1, “TREATMENT OF LIVER DISORDERS WITH A THR-ß AGONIST” (Terns Pharmaceuticals, Inc., priority 2021, published 2024).
Values joined by “and” are separate entries in the source; they are usually repeats but may differ in a detail not shown here. Identical values can stand only once. “Also recorded” adds a separate entry of the source.

Columns and labels:
[1] = Single ascending dose trial: plasma and urine pharmacokinetics; format: in vivo, human; conditions: for fe (fraction of dose excreted in urine as unmodified Compound 1): fasted, n = 6, mean (% CV)
Procedure: A single-ascending dose clinical trial of Compound 1 (potassium salt) was performed.
PK parameters were estimated via noncompartmental methods using Phoenix WinNonlink (Certara, LP, Princeton, NJ). Concentrations of serum pharmacodynamic (PD) biomarkers apolipoprotein B (Apo B) and sex hormone binding globulin (SHBG) were measured using an immunoassay and serum lipids were determined using spectrophotometry.

[2] = Multiple ascending dose trial: pharmacokinetics; format: in vivo, human
Procedure: A multiple-ascending dose clinical trial of Compound 1 was performed.
(See Table 5, FIG. 7.) PK parameters were estimated via noncompartmental methods using Phoenix® WinNonlin® (Certara, LP, Princeton, NJ). Concentrations of serum pharmacodynamic (PD) biomarkers apolipoprotein B (Apo B) and sex hormone binding globulin (SHBG) were measured using an immunoassay and serum lipids were determined using spectrophotometry.

[3] = tested on: SHBG, LDL-c and other lipid parameters; experiment: Multiple ascending doses in healthy subjects with elevated LDL-c: PD markers; format: in vivo, human; conditions: 1, 3, 6 or 10 mg once daily for 14 days
Excerpt: Secondary Objectives: Evaluate the PK and PD of Compound 1 in healthy subjects with elevated LDL-c following multiple ascending doses of Compound 1.

[4] = tested on: biopsy-confirmed DIO-NASH mice; experiment: DIO-GAN NASH mice: liver enzymes, plasma and liver lipids, CK18 M30; format: in vivo, C57BL/6JRj mice; conditions: for plasma triglycerides (TG): end of study
Excerpt: (§1) C57BL/6JRj male mice (n=138) were fed the Gubra Amylin NASH (GAN) diet (40% fat, 22% fructose, 2% cholesterol [D09100310, Research Diets]) or lean chow diet for 35 weeks before treatment start. Prior to treatment all animals underwent liver biopsy for histological confirmation (steatosis score ≥2 and fibrosis stage ≥1) and stratification using the nonalcoholic fatty liver disease (NAFLD) activity scoring (NAS) and fibrosis staging system. The diet-induced obese mice on GAN diet (DIO-GAN) were randomized to 8 treatment groups (Table 16) based on percent-area of picrosirius red (PSR) staining. […] Vehicle-dosed lean chow-fed controls served as healthy controls (n=10). Mice were maintained on their respective diets (GAN or lean chow) for the duration of the study. Within-subject comparisons (pre-vs. post-treatment) were performed for liver biopsy histopathological scores. Terminal quantitative endpoints included plasma/liver biochemistry, liver histomorphometry, and liver transcriptomic analysis by RNAseq.
Terminal blood was harvested by cardiac puncture from mice anesthetized with isoflurane (2-3%), mixed with anticoagulant, and placed at 4 C prior to centrifugation at 3000×g for 10 minutes. Plasma supernatants were transferred to new tubes and immediately frozen on dry ice and stored at −80 C. Alanine transaminase (ALT), Aspartate transaminase (AST), Alkaline phosphatase (ALP), Triglycerides (TGs), Total Cholesterol (TC), High-density lipoprotein (HDL-c), and Low-density lipoprotein (LDL-c) were measured using commercial kits (Roche Diagnostics) on the Cobas c 501 autoanalyzer according to manufacturer's instructions. Cytokeratin 18 M30 (CK18 M30) was measured from plasma using a commercial ELISA kit (Cusabio) according to the manufacturer's instructions.
Liver samples were homogenized and TGs and TC was extracted in 5% NP-40 by heating (2×) at 90 C. Samples were centrifuged and the TG and TC content was measured in the supernatant using commercial kits (Roche Diagnostics) on the Cobas c 501 autoanalyzer, according to the manufacturer's instructions.

[5] = tested on: biopsy-confirmed DIO-NASH mice; experiment: DIO-GAN NASH mice: liver histology (NAS, fibrosis, IHC); format: in vivo, C57BL/6JRj mice
Excerpt: as §1
Formalin-fixed paraffin-embedded (FFPE) liver biopsies were prepared by placing liver samples into 10% neutral buffered formalin for ˜24 hours and then transferred to 70% ethanol prior to storage at 4 C. FFPE were placed in the Histokinette to infiltrate prior to embedding in blocks. Biopsy tissues were then cut at 3 μm using a microtome and sections were mounted on slides. Liver sections were stained with Hematoxylin and Eosin (H&E) to assess steatosis, inflammation, and ballooning, and PSR to assess fibrosis. Additionally, slides were processed to detect type I collagen (Col1a1), galectin-3 (Gal-3), and smooth muscle actin (α-SMA) protein expression by immunohistochemistry (IHC). For H&E staining, slides were incubated in Mayer's Hematoxylin (Dako), washed with tap water, stained in Eosin Y solution (Sigma-Aldrich), dehydrated, and coverslipped. For PSR, slides were incubated in Weigert's iron hematoxylin (Sigma-Aldrich), washed in tap water, stained in Picro-sirius red (Sigma-Aldrich), and washed twice in acidified water. Excess water was removed by shaking the slides and the slides were then dehydrated with ethanol, cleared in xylene, and cover-slipped. The NAS and fibrosis stage were scored as described previously (Kleiner et al. 2005). NAS represents the unweighted sum of steatosis, inflammation, and ballooning scores and ranges for 0-8 (Table 17); fibrosis stage ranges from 0 (no fibrosis) to 4 (cirrhosis). For detection of Col1a1, Gal-3 and α-SMA, IHC was performed by standard procedures. Briefly, after antigen retrieval and blocking of endogenous peroxidase activity, slides were incubated with primary antibody (Col1a1: Southern Biotech, Cat. 1310-01; Gal-3: Biolegend, Cat. 125402; α-SMA: Abcam Cat. Ab124964). Primary antibody was detected using a polymeric HRP-linker antibody conjugate. Primary antibody was visualized with DAB as chromogen. Finally, sections were counterstained in hematoxylin and cover-slipped.
The NAFLD Activity Score (NAS) was used to assess the histological effects of treatment. NAS is defined as the unweighted sum of steatosis, inflammation, and ballooning histological scores and can range from 0-8. NAS was determined for each animal before (baseline) and after 12-weeks of treatment at the end of study. NAS was well balanced across treatment groups with an NAS range of 5-6 at baseline in most mice (FIG. 39A). […] In addition, the magnitude of NAS improvement was greater in the combination treatment groups.

[6] = PO QD 12 weeks, Compound 1-low, 0.3 mg/kg
[7] = PO QD 12 weeks, Compound 1-med, 2 mg/kg
[8] = PO QD 12 weeks, Compound 1 Low, 0.3 mg/kg
[9] = PO QD 12 weeks, Compound 1 Med, 2 mg/kg
[10] = PO QD 12 weeks, Compound 2 10 mg/kg alone or plus Compound 1 0.3/2/10 mg/kg (Combo Low/Med/High)
[11] = PO QD 12 weeks, Compound 2 10 mg/kg alone or plus Compound 1 0.3/2/10 mg/kg (Combo-low/med/high)

SMILES: N#Cc1nn(-c2cc(Cl)c(Oc3n[nH]c(=O)c4ccccc34)c(Cl)c2)c(=O)[nH]c1=O [Compound 1, 2-(3,5-dichloro-4-((4-oxo-3,4-dihydrophthalazin-1-yl)oxy)phenyl)-3,5-dioxo-2,3,4,5-tetrahydro-1,2,4-triazine-6-nitrile]
- renal excretion ([1]; all single doses): Minimal renal excretion
- fe (fraction of dose excreted in urine as unmodified Compound 1) ([1]; single 3 mg dose): 2.95 (62) % dose, urine
- fe (fraction of dose excreted in urine as unmodified Compound 1) ([1]; single 10 mg dose): 2.05 (74) % dose, urine
- fe (fraction of dose excreted in urine as unmodified Compound 1) ([1]; single 30 mg dose): 1.78 (35) % dose, urine
- fe (fraction of dose excreted in urine as unmodified Compound 1) ([1]; single 60 mg dose): 1.53 (53) % dose, urine
- dose proportionality of exposures (AUC, Cmax) ([1]; single doses 3-60 mg): approximately dose-proportional; also recorded: linear and dose-proportional plasma exposures with low variability
- t1/2 ([2]; Day 14, 6 mg QD, N = 6, median): 15.8 h
- oral bioavailability and PK variability ([2]; multiple doses): good oral bioavailability with low PK variability
- SHBG [3]: increased
- circulating atherogenic lipid levels including LDL-c, Apo B, total cholesterol, and triglycerides [3]: significant decreases
- plasma triglycerides (TG) ([4]; Compound 1-high, 10 mg/kg): significantly reduced
- ALT levels relative to DIO-GAN vehicle control ([4]; single agent Compound 1 low, med, and high (0.3, 2, 10 mg/kg)): significantly lowered
- NAFLD Activity Score (NAS): No change, % of mice [5, 6]: 56.25%
- NAS: Improving 1-pt, % of mice [5, 6]: 31.25%
- NAS: Improving Total (≥1-pt), % of mice [5, 6]: 31% and 31.25%
- NAS: Improving ≥2-pt, % of mice [5, 6]: 0%
- NAS: Worsening ≥1-pt, % of mice [5, 6]: 12.5%
- NAS: Improving 1-pt, % of mice [5, 7]: 20%
- NAS: Improving Total (≥1-pt), % of mice [5, 7]: 27%
- NAS: Improving ≥2-pt, % of mice [5, 7]: 7% and 6.7%
- NAS: Worsening ≥1-pt, % of mice [5, 7]: 0%
- Histological Steatosis Score: No change, % of mice [5, 8]: 68.75%
- Liver Fibrosis stage: Improving, % of mice [5, 8]: 6.25%
- Liver Fibrosis stage: No change, % of mice [5, 8]: 62.5%
- Lobular Inflammation: Improving, % of mice [5, 8]: 6.25%
- Lobular Inflammation: Worsening, % of mice [5, 8]: 25%
- Steatosis Score: Improving 1-pt, % of mice [5, 8]: 25%
- Steatosis Score: Improving Total, % of mice [5, 8]: 31%
- Steatosis Score: Improving ≥2-pt, % of mice [5, 8]: 6.25%
- Liver Fibrosis stage: No change, % of mice [5, 9]: 60%
- Lobular Inflammation: Improving, % of mice [5, 9]: 6.7%
- Lobular Inflammation: Worsening, % of mice [5, 9]: 20%
- Steatosis Score: Improving 1-pt, % of mice [5, 9]: 40%
- Steatosis Score: Improving Total, % of mice [5, 9]: 47%
- Steatosis Score: Improving ≥2-pt, % of mice [5, 9]: 6.7%
- α-SMA (IHC) ([5]; end of study, Compound 1-low and Compound 1-med (0.3 and 2 mg/kg)): Numeric reductions

SMILES: Cn1cc(C(=O)O)c2ccc(C3CCC(OCc4c(-c5c(Cl)cccc5Cl)noc4C4CC4)CC3)cc21 (stereo not drawn) [Compound 2]
- plasma triglycerides (TG) ([4]; Compound 2 10 mg/kg and combinations): significantly reduced
- Histological Steatosis Score: No change, % of mice [5, 10]: 18.75%
- Liver Fibrosis stage: Improving, % of mice [5, 10]: 6.25%
- Liver Fibrosis stage: No change, % of mice [5, 10]: 56.25%
- Liver Fibrosis stage: Worsening, % of mice [5, 10]: 37.5%
- Lobular Inflammation: Improving, % of mice [5, 10]: 0%
- Lobular Inflammation: No change, % of mice [5, 10]: 68.75%
- Lobular Inflammation: Worsening, % of mice [5, 10]: 31.25%
- Steatosis Score: Improving 1-pt, % of mice [5, 10]: 81.25%
- Steatosis Score: Improving Total, % of mice [5, 10]: 81% and 81.25%
- Steatosis Score: Improving ≥2-pt, % of mice [5, 10]: 0%
- NAFLD Activity Score (NAS): No change, % of mice [5, 11]: 43.7%
- NAS: Improving 1-pt, % of mice [5, 11]: 56.25%
- NAS: Improving Total (≥1-pt), % of mice [5, 11]: 56% and 56.25%
- NAS: Improving ≥2-pt, % of mice [5, 11]: 0%
- NAS: Worsening ≥1-pt, % of mice [5, 11]: 0%
- α-SMA (IHC) ([5]; end of study, Compound 2 10 mg/kg, combinations per Table 16): Numeric reductions
- Gal-3 expression in the liver (IHC) relative to DIO-GAN vehicle control ([5]; end of study, doses per Table 16): lower levels of Gal-3 expression
